Test results as given in US20210347709A1, “RADIOFLUORINATED GPC3-BINDING PEPTIDES FOR PET IMAGING OF HEPATOCELLULAR CARCINOMA” (University of Southern California, priority 2020, published 2021).
Where two headings read alike, the source gives them in different places.

Columns and labels:
[1] = Measurement of lipophilicity (Log P), 1-octanol/PBS partition; format: physicochemical; details: 1-octanol / PBS pH 7.4, mean ± SD, n = 4
Experimental: Measurement of Lipophilicity (Log P). Approximately 185 kBq of Al[^18F]F-GP2076 or Al[^18F]F-GP2633 in 0.5 ml of phosphate-buffered saline (PBS) (pH 7.4) was mixed with 0.5 ml of 1-octanol. The mixture was vigorously shaken for 1 min, and then centrifuged at 12,000 rpm for 5 min to partition the organic and aqueous layers. Aliquots of 0.2 ml each layer were taken and the radioactivity was determined by gamma counting (GC-1200, USTC Chuangxin Co. Ltd. Zonkia Branch, China). The distribution coefficient P was calculated as the ratio of radioactivity in the organic phase to that in the aqueous phase. The experiment was carried out in quadruplicate.

[2] = MicroPET/CT imaging and biodistribution, HepG2 tumor model; format: in vivo, nude mice; details: both sexes, BALB/c nude, mouse, iv, 5.55 MBq, total radioactivity; for tissue to tissue ratio at 1 h / tissue to tissue ratio at 0.5 h / tissue to tissue ratio at 2 h: HepG2 (GPC3+) tumor bearing mice; for tissue to tissue ratio at 1 h / tissue uptake at 1 h: 60 min; for tissue to tissue ratio at 0.5 h / tissue uptake at 0.5 h: 30 min; for tissue to tissue ratio at 2 h / tissue uptake at 2 h: 120 min; for tissue uptake at 0.5 h / tissue uptake at 1 h / tissue uptake at 2 h: HepG2 (GPC3+) tumor model, PET
Experimental: (§1) MicroPET/CT Imaging and Biodistribution. MicroPET/CT scans were carried out using a Siemens Inveon PET/CT scanner (Siemens, Germany). Tumor-bearing mice (n=3/group) were intravenously injected with 5.55 MBq of Al[^18F]F-GP2076 or Al[^18F]F-GP2633 under isoflurane anesthesia. A ten-minute static PET scan for each animal was acquired at 30, 60, and 120 min after the injection. 3-Dimensional ordered subset expectation maximization (3D-OSEM) algorithm was used for the PET reconstruction, and CT was applied for attenuation correction. Detailed procedures for the microPET/CT imaging and biodistribution are provided in ESM.
(§2) All animal experiments were conducted according to the guideline of the Nanfang Hospital Animal Ethics Committee at the Southern Medical University. Male or female BALB/c nude mice (about 4-6 weeks old) were obtained from the Laboratory Animal Center at Southern Medical University. The HepG2 and McA-RH7777 HCC xenografts were established by subcutaneous injection of 1×10^6 tumor cells into the left shoulder of nude mice. The animals were used for in vivo studies when the tumors reached a size of 0.5-1 cm in diameter (4-6 weeks after inoculation).
(§3) Inveon Research Workplace (IRW) 3.0 software (Siemens, Germany) was used to measure the regions of interest (ROIs) determined by superimposing the ellipsoid volume of interest (VOI) on the target tissues. The radioactivity concentrations were measured by the mean pixel intensity within each VOI and converted to dose/ml using a calibration constant. Assuming the tissue density of 1 g/ml, the ROI was then converted to dose per gram and normalized as the percent injected dose per gram (% ID/g). Tumor-to-nontarget uptake ratios, including tumor-to-muscle (T/M), tumor-to-liver (T/L), and tumor-to-kidneys (T/K) ratios, were calculated by dividing the radioactivity uptake in tumor by that in the corresponding normal tissue or organ.

[3] = system: GPC3-positive HepG2 tumor; experiment: as above; format: in vivo, nude mice; details: for Kidneys uptake / Liver uptake / Tumor uptake: HepG2 (GPC3+) tumor model; for Tumor uptake: decay-corrected
Experimental: as §1, §2, §3

[4] = Ex vivo biodistribution in HepG2 tumor bearing nude mice; details: both sexes, BALB/c nude, mouse, iv, 1.85 MBq, total radioactivity, 1 h post-injection, gamma counting
Experimental: as §2
(§4) Ex vivo biodistribution was evaluated at 60 min after the tail vein injection of 1.85 MBq of Al[^18F]F-GP2076 or Al[^18F]F-GP2633. Mice were euthanized and dissected. Major tissues and organs were collected and weighed wet. The radioactivity in the tissues and organs was measured using a gamma counter. The results were presented as % ID/g. For each animal, the radioactivity of the tissue and organ samples was calibrated with a known aliquot of the injected activity. Mean uptake (% ID/g) for a group of animals was calculated with standard deviations.

HepG2 tumor = experiment: as above; details: 1 h post-injection, gamma counting
Experimental: as §2, §4

[5] = HepG2 tumor / liver, read-out: Tumor-to-liver (T/L) uptake ratio
[6] = HepG2 tumor / muscle, read-out: Tumor-to-muscle (T/M) uptake ratio
[7] = intestine, read-out: Intestinal uptake
[8] = decay-corrected, read-out: Tumor uptake
[9] = kidneys, read-out: Kidneys uptake
[10] = muscle, read-out: Muscle uptake
[11] = tumor / kidneys, read-out: Tumor-to-kidneys (T/K) uptake ratio
[12] = HepG2 (GPC3+) tumor bearing mice, 30 min
[13] = HepG2 (GPC3+) tumor bearing mice, 60 min
[14] = HepG2 (GPC3+) tumor bearing mice, 120 min

SMILES: CC(C)C[C@H](NC(=O)[C@H](CCCNC(=N)N)NC(=S)Nc1ccc(CC2CN(CC(=O)O)CCN(CC(=O)O)CCN2CC(=O)O)cc1)C(=O)N[C@@H](CC(N)=O)C(=O)N[C@H](C(=O)NCC(=O)NCC(=O)N[C@H](C(=O)N[C@@H](Cc1ccc(O)cc1)C(=O)N[C@@H](Cc1ccccc1)C(=O)N[C@@H](CC(C)C)C(=O)N[C@H](C(=O)N[C@H](C(=O)N[C@@H](CCCNC(=N)N)C(=O)N[C@@H](CCC(N)=O)C(=O)O)[C@@H](C)O)[C@@H](C)O)[C@@H](C)O)C(C)C (single isomer, unassigned) [Al[^18F]F-GP2076]
- logP [1]: -2.1 ± 0.07
- tissue to tissue ratio at 1 h ([2]; HepG2 tumor / kidneys, read-out: Tumor-to-kidneys (T/K) uptake ratio): 0.31 ± 0.04
- tissue to tissue ratio at 0.5 h [2, 5]: 0.43 ± 0.06
- tissue to tissue ratio at 1 h [2, 5]: 0.59 ± 0.14
- tissue to tissue ratio at 2 h [2, 5]: 0.46 ± 0.4
- tissue to tissue ratio at 0.5 h [2, 6]: 5.56 ± 1.36
- tissue to tissue ratio at 1 h [2, 6]: 5.13 ± 2.08
- tissue to tissue ratio at 2 h [2, 6]: 2.68 ± 0.29
- tissue uptake at 0.5 h ([2]; bone, read-out: Bone uptake): 0.95 %ID/g
- tissue uptake at 1 h ([2]; bone, read-out: Bone uptake): 0.35 %ID/g
- tissue uptake at 2 h ([2]; bone, read-out: Bone uptake): 0.21 %ID/g
- tissue uptake at 0.5 h ([2]; brain, read-out: Brain uptake): 0.63 %ID/g
- tissue uptake at 1 h ([2]; brain, read-out: Brain uptake): 0.18 %ID/g
- tissue uptake at 2 h ([2]; brain, read-out: Brain uptake): 0.13 %ID/g
- tissue uptake at 0.5 h ([2]; heart, read-out: Heart uptake): 1.29 %ID/g
- tissue uptake at 1 h ([2]; heart, read-out: Heart uptake): 1.05 %ID/g
- tissue uptake at 2 h ([2]; heart, read-out: Heart uptake): 0.36 %ID/g
- tissue uptake at 0.5 h [2, 7]: 3.03 %ID/g
- tissue uptake at 1 h [2, 7]: 2.57 %ID/g
- tissue uptake at 2 h [2, 7]: 1.8 %ID/g
- tissue uptake at 0.5 h [2, 8]: 2.2 %ID/g
- tissue uptake at 1 h [2, 8]: 2.13 %ID/g
- tissue uptake at 2 h [2, 8]: 0.73 %ID/g
- tissue uptake at 0.5 h [2, 9]: 9.83 %ID/g
- tissue uptake at 1 h [2, 9]: 7.03 %ID/g
- tissue uptake at 2 h [2, 9]: 2.27 %ID/g
- tissue uptake at 0.5 h ([2]; liver, read-out: Liver uptake): 5.1 %ID/g
- tissue uptake at 1 h ([2]; liver, read-out: Liver uptake): 3.7 %ID/g
- tissue uptake at 2 h ([2]; liver, read-out: Liver uptake): 2.07 %ID/g
- tissue uptake at 0.5 h ([2]; lung, read-out: Lung uptake): 1.57 %ID/g
- tissue uptake at 1 h ([2]; lung, read-out: Lung uptake): 0.78 %ID/g
- tissue uptake at 2 h ([2]; lung, read-out: Lung uptake): 0.43 %ID/g
- tissue uptake at 0.5 h [2, 10]: 0.41 %ID/g
- tissue uptake at 1 h [2, 10]: 0.44 %ID/g
- tissue uptake at 2 h [2, 10]: 0.28 %ID/g
- tissue to tissue ratio at 0.5 h [2, 11]: 0.25 ± 0.11
- tissue to tissue ratio at 2 h [2, 11]: 0.46 ± 0.46
- Tumor-to-liver (T/L) uptake ratio [3, 12]: 0.43±0.06
- Tumor-to-muscle (T/M) uptake ratio [3, 12]: 5.56±1.36
- Tumor-to-kidneys (T/K) uptake ratio [3, 13]: 0.31±0.04
- Tumor-to-liver (T/L) uptake ratio [3, 13]: 0.59±0.14
- Tumor-to-muscle (T/M) uptake ratio [3, 13]: 5.13±2.08
- Tumor-to-liver (T/L) uptake ratio [3, 14]: 0.46±0.40
- Tumor-to-muscle (T/M) uptake ratio [3, 14]: 2.68±0.29
- Kidneys uptake ([3]; 30 min, PET): 9.83±3.69 % ID/g
- Liver uptake ([3]; 30 min, PET): 5.10±0.53 % ID/g
- Tumor uptake ([3]; 30 min, PET): 2.20±0.36 % ID/g
- Kidneys uptake ([3]; 60 min, PET): 7.03±2.32 % ID/g
- Liver uptake ([3]; 60 min, PET): 3.70±0.98 % ID/g
- Tumor uptake ([3]; 60 min, PET): 2.13±0.55 % ID/g
- Kidneys uptake ([3]; 120 min, PET): 2.27 ± 1.07 % ID/g
- Liver uptake ([3]; 120 min, PET): 2.07 ± 0.96 % ID/g
- Tumor uptake ([3]; 120 min, PET): 0.73±0.32 % ID/g
- defluorination in vivo (from low bone uptake) ([3]; PET, bone uptake): did not occur
- clearance / excretion route from the mouse body ([3]; as visualized by PET images): primarily through the hepatic pathway
- tissue uptake at 1 h ([4]; HepG2 tumor, read-out: HepG2 Tumor uptake, ex vivo biodistribution): 1.13 ± 0.02 %ID/g
- tissue uptake at 1 h ([4]; blood, read-out: Blood uptake, ex vivo biodistribution): 0.36 ± 0.17 %ID/g
- tissue uptake at 1 h ([4]; bone, read-out: Bone uptake, ex vivo biodistribution): 0.29 ± 0.13 %ID/g
- tissue uptake at 1 h ([4]; brain, read-out: Brain uptake, ex vivo biodistribution): 0.1 ± 0.1 %ID/g
- tissue uptake at 1 h ([4]; heart, read-out: Heart uptake, ex vivo biodistribution): 0.36 ± 0.15 %ID/g
- tissue uptake at 1 h ([4]; kidneys, read-out: Kidneys uptake, ex vivo biodistribution): 6.37 ± 1.45 %ID/g
- tissue uptake at 1 h ([4]; liver, read-out: Liver uptake, ex vivo biodistribution): 2.3 ± 0.56 %ID/g
- tissue uptake at 1 h ([4]; muscle, read-out: Muscle uptake, ex vivo biodistribution): 0.24 ± 0.07 %ID/g
- HepG2 Tumor uptake, ex vivo biodistribution (HepG2 tumor): 1.13±0.02 % ID/g
- Liver uptake, ex vivo biodistribution (HepG2 tumor): 2.30±0.56 % ID/g
